Tests used:
[1] = target: Insulin receptor (Homo sapiens) (UniProt P06213); assay: Displacement of [125I]insulin from insulin receptor chimera fused with Fc-region of IgG at 100 uM by scintillation proximity assay
[2] = target: Insulin receptor (Homo sapiens) (UniProt P06213); assay: Displacement of [125I]insulin from insulin receptor chimera fused with Fc-region of IgG at 300 uM by scintillation proximity assay

Sequence of Insulin receptor (Homo sapiens) (P06213 28-758 limits assumed): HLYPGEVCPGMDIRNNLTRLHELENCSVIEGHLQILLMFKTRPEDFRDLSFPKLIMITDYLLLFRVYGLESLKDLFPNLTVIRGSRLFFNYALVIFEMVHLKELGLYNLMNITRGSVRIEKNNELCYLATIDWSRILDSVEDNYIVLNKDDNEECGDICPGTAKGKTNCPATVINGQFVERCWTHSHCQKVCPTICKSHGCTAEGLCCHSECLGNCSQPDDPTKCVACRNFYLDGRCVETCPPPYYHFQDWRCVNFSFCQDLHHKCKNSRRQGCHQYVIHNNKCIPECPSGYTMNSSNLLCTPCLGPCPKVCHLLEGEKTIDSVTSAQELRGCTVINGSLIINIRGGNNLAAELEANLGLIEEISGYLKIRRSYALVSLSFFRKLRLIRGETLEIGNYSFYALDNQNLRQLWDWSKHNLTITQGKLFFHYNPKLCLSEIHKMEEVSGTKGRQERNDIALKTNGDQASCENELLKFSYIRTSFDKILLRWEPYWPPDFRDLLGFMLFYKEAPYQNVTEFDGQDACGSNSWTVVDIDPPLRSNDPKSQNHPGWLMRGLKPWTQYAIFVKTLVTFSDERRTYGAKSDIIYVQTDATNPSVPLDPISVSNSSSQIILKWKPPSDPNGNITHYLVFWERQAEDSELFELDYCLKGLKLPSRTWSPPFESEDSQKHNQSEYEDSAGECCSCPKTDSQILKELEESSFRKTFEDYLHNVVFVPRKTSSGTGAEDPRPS
Sequence of Insulin receptor (Homo sapiens) (P06213 763-1382 limits assumed): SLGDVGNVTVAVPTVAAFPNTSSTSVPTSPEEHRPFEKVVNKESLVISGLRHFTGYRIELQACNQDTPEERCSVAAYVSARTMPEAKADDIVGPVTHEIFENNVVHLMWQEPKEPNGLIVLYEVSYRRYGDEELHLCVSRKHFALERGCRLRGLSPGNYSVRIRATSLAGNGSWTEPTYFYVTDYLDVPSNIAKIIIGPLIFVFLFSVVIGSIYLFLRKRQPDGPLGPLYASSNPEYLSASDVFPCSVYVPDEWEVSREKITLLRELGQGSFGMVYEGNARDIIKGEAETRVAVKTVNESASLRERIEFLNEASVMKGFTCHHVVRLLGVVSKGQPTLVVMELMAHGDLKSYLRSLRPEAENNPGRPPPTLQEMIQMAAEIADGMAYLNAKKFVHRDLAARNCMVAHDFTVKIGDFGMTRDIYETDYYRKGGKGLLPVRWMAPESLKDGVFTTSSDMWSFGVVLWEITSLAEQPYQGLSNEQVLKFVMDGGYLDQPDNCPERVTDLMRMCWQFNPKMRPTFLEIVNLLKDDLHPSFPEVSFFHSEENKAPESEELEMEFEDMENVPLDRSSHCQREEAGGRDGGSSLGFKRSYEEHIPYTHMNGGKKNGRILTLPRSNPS

O=C(CSc1nnc(Nc2ccccc2F)s1)c1ccc(OC(F)F)cc1 was tested, and the Activity [1] was 69% and the Activity [2] was 49%.

— ChEMBL document CHEMBL1157598, “Direct determination of the insulin-insulin receptor interface using transferred cross-saturation experiments” (J Med Chem, 2010)
